Legend:
Assay type in all cases: cell-based
human TLR7 = target: T1, human TLR7 (Homo sapiens, UniProt Q9NYK1); assay: TLR7 inhibition reporter assay (HEK-Blue SEAP); conditions: cells overexpressing human TLR7, SEAP reporter, stimulated with gardiquimod 7.5 μM, 22 hour incubation
T1 construct: host or cells: HEK-Blue cells
T1 sequence (Q9NYK1 27-1049): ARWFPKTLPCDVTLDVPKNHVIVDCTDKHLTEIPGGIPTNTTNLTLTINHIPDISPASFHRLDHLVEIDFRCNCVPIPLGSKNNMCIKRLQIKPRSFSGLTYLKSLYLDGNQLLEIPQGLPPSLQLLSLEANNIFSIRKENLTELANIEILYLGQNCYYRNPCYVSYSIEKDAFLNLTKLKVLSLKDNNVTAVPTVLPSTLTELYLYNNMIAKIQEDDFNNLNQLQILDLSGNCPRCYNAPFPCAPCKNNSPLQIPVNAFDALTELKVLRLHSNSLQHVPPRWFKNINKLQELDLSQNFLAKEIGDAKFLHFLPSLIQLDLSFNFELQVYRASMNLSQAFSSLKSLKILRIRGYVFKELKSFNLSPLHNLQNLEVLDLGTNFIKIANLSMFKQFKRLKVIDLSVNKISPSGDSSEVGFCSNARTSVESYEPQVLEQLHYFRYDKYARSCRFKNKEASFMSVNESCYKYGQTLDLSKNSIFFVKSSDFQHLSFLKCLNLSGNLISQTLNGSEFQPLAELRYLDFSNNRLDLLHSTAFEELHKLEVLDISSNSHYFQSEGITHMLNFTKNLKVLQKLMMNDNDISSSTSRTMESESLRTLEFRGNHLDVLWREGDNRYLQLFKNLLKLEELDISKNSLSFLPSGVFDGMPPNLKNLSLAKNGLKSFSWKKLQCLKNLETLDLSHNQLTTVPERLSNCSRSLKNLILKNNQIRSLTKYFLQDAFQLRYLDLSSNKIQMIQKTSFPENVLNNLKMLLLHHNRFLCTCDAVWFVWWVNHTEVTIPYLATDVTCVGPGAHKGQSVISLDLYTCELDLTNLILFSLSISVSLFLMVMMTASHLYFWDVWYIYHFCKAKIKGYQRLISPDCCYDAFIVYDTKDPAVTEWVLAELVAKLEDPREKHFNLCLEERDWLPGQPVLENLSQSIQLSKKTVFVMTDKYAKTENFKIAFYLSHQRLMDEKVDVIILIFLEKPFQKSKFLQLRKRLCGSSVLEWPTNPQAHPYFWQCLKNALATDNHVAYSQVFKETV
Procedure: (§1) TLR7/8/9 Inhibition Reporter Assays
(§2) […] (Invivogen) overexpressing human TLR7, TLR8 or TLR9 receptors were used for screening inhibitors of these receptors using an inducible SEAP (secreted embryonic alkaline phosphatase) reporter gene under the control of the IFN-β minimal promoter fused to five NF-κB and AP-1-binding sites. Briefly, cells are seeded into Greiner 384 well plates (15000 cells per well for TLR7, 20,000 for TLR8 and 25,000 for TLR9) and then treated with test compounds in DMSO to yield a final dose response concentration range of 0.05 nM-50 μM. After a 30 minute compound pre-treatment at room temperature, the cells are then stimulated with a TLR7 ligand (gardiquimod at a final concentration of 7.5 μM). TLR8 ligand (R848 at a final concentration of 15.9 μM) or TLR9 ligand (ODN2006 at a final concentration of 5 nM) to activate NF-κB and AP-1 which induce the production of SEAP. After a 22 hour incubation at 37° C., 5% CO2, SEAP levels are determined with the addition of HEK-Blue™ Detection reagent (Invivogen), a cell culture medium that allows for detection of SEAP, according to manufacturer's specifications. The percent inhibition is determined as the % reduction in the HEK-Blue signal present in wells treated with agonist plus DMSO alone compared to wells treated with a known inhibitor.

human TLR9 = target: T2, human TLR9 (Homo sapiens, UniProt Q9NR96); assay: TLR9 inhibition reporter assay (HEK-Blue SEAP); conditions: cells overexpressing human TLR9, SEAP reporter, stimulated with ODN2006 5 nM, 22 hour incubation
T2 construct: host or cells: HEK-Blue cells
T2 sequence (Q9NR96 26-1032): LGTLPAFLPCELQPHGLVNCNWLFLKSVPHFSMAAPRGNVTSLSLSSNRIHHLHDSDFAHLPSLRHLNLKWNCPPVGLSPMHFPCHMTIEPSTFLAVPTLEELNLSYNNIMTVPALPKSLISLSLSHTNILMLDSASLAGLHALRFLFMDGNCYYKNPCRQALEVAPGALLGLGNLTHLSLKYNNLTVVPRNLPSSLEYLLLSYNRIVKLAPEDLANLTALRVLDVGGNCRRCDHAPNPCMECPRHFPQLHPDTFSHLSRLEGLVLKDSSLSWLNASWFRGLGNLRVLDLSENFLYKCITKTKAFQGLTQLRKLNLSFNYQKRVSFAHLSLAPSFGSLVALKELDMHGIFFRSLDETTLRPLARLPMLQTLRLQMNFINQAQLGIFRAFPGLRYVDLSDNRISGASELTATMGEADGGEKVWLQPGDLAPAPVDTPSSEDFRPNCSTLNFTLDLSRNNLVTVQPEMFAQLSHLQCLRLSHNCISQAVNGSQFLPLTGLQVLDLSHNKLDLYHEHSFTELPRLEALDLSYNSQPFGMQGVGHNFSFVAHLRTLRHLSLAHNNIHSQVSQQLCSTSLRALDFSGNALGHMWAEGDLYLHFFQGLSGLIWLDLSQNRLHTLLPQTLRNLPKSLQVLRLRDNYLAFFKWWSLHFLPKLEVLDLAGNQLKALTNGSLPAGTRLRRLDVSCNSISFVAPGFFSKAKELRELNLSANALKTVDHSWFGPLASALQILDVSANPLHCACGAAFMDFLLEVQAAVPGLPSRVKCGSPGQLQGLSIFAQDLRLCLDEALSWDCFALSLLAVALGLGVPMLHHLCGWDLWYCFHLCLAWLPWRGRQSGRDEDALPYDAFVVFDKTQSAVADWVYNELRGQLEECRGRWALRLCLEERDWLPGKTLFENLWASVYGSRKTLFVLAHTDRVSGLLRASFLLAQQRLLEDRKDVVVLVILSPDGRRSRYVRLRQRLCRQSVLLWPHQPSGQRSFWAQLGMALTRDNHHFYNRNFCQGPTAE
Procedure: as §1, §2

human TLR8 = target: T3, human TLR8 (Homo sapiens, UniProt Q9NR97); assay: TLR8 inhibition reporter assay (HEK-Blue SEAP); conditions: cells overexpressing human TLR8, SEAP reporter, stimulated with R848 15.9 μM, 22 hour incubation
T3 construct: host or cells: HEK-Blue cells
T3 sequence (Q9NR97 27-1041): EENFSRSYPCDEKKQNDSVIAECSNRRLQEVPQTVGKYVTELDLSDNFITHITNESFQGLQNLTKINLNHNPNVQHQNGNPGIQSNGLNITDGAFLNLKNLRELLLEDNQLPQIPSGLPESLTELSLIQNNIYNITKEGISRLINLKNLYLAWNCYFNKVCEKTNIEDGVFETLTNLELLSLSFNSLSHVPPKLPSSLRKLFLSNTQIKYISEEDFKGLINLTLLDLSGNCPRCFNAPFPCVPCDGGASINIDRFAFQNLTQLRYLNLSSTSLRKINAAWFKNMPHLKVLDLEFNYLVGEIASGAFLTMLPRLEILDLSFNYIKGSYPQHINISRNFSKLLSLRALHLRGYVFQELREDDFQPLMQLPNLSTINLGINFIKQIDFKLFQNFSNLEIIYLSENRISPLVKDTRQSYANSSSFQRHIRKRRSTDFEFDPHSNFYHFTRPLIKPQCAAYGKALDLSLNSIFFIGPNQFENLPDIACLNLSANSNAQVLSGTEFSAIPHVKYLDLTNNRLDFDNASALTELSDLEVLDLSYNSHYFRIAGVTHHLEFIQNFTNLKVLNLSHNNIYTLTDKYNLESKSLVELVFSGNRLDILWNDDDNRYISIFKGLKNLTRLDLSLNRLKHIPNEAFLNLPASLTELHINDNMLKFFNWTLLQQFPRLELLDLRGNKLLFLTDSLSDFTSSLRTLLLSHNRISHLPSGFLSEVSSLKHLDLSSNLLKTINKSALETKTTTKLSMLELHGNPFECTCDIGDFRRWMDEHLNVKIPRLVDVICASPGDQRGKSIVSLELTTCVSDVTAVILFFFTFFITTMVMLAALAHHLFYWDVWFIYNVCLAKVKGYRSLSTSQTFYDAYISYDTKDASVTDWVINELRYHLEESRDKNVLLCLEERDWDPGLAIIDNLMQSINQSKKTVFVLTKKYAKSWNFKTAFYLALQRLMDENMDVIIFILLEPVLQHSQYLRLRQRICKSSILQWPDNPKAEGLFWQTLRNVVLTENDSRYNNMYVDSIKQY
Procedure: as §1, §2

Structure (SMILES)	IC50 (human TLR7) [nM]	IC50 (human TLR9) [nM]	IC50 (human TLR8) [nM]
CCc1c(-c2ccc(OC)c(OC)c2)[nH]c2nnc(C3CCNCC3)cc12 [Example 1, 6-(3,4-dimethoxyphenyl)-5-ethyl-3-(piperidin-4-yl)-7H-pyrrolo[2,3-c]pyridazine]	100 to 1000	100 to 1000	1000 to 50000
CCc1c(-c2ccc(OC)c(OC)c2)[nH]c2nnc(C3CCN(C4CCN(C(C)C)CC4)CC3)cc12 [Example 2, 6-(3,4-dimethoxyphenyl)-5-ethyl-3-(1′-isopropyl-[1,4′-bipiperidin]-4-yl)-7H-pyrrolo[2,3-c]pyridazine]	100 to 1000	100 to 1000	100 to 1000
CCc1c(-c2ccc(OC)c(OC)c2)[nH]c2ncc(C3CCNCC3)nc12 [Example 3, 6-(3,4-dimethoxyphenyl)-7-ethyl-2-(piperidin-4-yl)-5H-pyrrolo[2,3-b]pyrazine]	100 to 1000	100 to 1000	100 to 1000
CCc1c(-c2ccc(OC)c(OC)c2)[nH]c2ncc(C3CCN(C(=O)CN(C)C)CC3)nc12 [Example 4, 1-(4-(6-(3,4-dimethoxypbenyl)-7-ethyl-5H-pyrrolo[2,3-b]pyrazin-2-yl)piperidin-1-yl)-2-(dimethylamino)ethanone]	100 to 1000	1000 to 50000	100 to 1000
COc1ccc(-c2[nH]c3cnc(C4CCN(C5CCN(CC(C)C)CC5)CC4)nc3c2C)cc1OC [Example 6, 6-(3,4-dimethoxyphenyl)-2-(1′-isobutyl-[1,4′-bipiperidin]-4-yl)-7-methyl-5H-pyrrolo[3,2-d]pyrimidine]	100 to 1000	100 to 1000	100 to 1000
Cc1c(-c2[nH]c3cnc(C4CCN(CC(=O)N(C)C)CC4)nc3c2C(C)C)cn2ncnc2c1C [Example 10, 2-(4-(6-(7,8-dimethyl-[1,2,4]triazolo[1,5-a]pyrimidin-6-yl)-7-isopropyl-5H-pyrrolo[3,2-d]pyrimidin-2-yl)piperidin-1-yl)-N,N-dimethylacetantide]	< 100	1000 to 50000	< 100
COc1cc(-c2[nH]c3cnc(C4CCN(C(=O)CN(C)C)CC4)nc3c2C(C)C)cn2ncnc12 [Example 11, 2-(dirnethylamino)-1-(4-(7-isopropyl-6-(8-methoxy-[1,2,4]triazolo[1,5-a]pyridin-6-yl)-5H-pyrrolo[3,2-d]pyrimidin-2-yl)piperidin-1-yl)ethan-1-one]	< 100	1000 to 50000	< 100
Cc1cc(-c2[nH]c3cnc(C4CCN(C5CCOC5)CC4)nc3c2C(C)C)cn(C)c1=O (stereo not drawn) [Example 12, 5-(7-isopropyl-2-(1-(tetrahydrofuran-3-yl)piperidin-4-yl)-5H-pyrrolo[3,2-d]pyrimidin-6-yl)-1,3-dirnethylpyridin-2(1H)-one]	< 100	1000 to 50000	< 100

The next lines start with the values.

IC50 (human TLR7) [nM]	IC50 (human TLR9) [nM]	IC50 (human TLR8) [nM]	Structure (SMILES)
< 100	100 to 1000	100 to 1000	CCc1c(-c2ccc(OC)c(OC)c2)[nH]c2ncc(C3CCN(C4CCN(C(C)C)CC4)CC3)nc12 [Example 5, 6-(3,4-ditnethoxyphenyl)-7-ethyl-2-(1′-isopropyl-[1,4′-bipiperidin]-4-yl)-5H-pyrrolo[2,3-b]pyrazine]
< 100	1000 to 50000	100 to 1000	Cc1cc(-c2[nH]c3cnc(C4CCNCC4)nc3c2C(C)C)cn(C)c1=O [Example 7, 5-(7-isopropyl-2-(piperidin-4-yl)-5H-pyrrolo[3,2-d]pyrimidin-6-yl)-1,3-dimethylpyridin-2(1H)-one]
< 100	1000 to 50000	< 100	Cc1cc(-c2[nH]c3cnc(C4CCN(C5COC5)CC4)nc3c2C(C)C)cn(C)c1=O [Example 8, 5-(7-isopropyl-2-(1-(oxetan-3-yl)piperidin-4-yl)-5H-pyrrolo[3,2-d]pyrimidin-6-yl)-1,3-dimethylpyridin-2(1H)-one]
< 100	1000 to 50000	< 100	CNC(=O)CN1CCC(c2ncc3[nH]c(-c4cn5ncnc5c(C)c4C)c(C(C)C)c3n2)CC1 [Example 9, 2-(4-(6-(7,8-dimethyl-[1,2,4]triazolo[1,5-a]pyridin-6-yl)-7-isopropyl-5H-pyrrolo[3,2-d]pyrimidin-2-yl)piperidin-1-yl)-N-methylacetamide]
